Source: patent publication US11878975B2, “Substituted indole compounds useful as TLR inhibitors” (BRISTOL-MYERS SQUIBB COMPANY, priority 2017, dated 2024)

Legend:
Type in all cases: cell-based
human TLR8 = molecular target: T1, human TLR8 (Homo sapiens, UniProt Q9NR97); test: TLR8 inhibition reporter assay (HEK-Blue cells, SEAP reporter, R848 stimulation); details: HEK-Blue cells overexpressing human TLR8, SEAP reporter, R848 15.9 μM
T1 construct: host or cells: HEK-Blue cells
T1 sequence (Q9NR97 27-1041): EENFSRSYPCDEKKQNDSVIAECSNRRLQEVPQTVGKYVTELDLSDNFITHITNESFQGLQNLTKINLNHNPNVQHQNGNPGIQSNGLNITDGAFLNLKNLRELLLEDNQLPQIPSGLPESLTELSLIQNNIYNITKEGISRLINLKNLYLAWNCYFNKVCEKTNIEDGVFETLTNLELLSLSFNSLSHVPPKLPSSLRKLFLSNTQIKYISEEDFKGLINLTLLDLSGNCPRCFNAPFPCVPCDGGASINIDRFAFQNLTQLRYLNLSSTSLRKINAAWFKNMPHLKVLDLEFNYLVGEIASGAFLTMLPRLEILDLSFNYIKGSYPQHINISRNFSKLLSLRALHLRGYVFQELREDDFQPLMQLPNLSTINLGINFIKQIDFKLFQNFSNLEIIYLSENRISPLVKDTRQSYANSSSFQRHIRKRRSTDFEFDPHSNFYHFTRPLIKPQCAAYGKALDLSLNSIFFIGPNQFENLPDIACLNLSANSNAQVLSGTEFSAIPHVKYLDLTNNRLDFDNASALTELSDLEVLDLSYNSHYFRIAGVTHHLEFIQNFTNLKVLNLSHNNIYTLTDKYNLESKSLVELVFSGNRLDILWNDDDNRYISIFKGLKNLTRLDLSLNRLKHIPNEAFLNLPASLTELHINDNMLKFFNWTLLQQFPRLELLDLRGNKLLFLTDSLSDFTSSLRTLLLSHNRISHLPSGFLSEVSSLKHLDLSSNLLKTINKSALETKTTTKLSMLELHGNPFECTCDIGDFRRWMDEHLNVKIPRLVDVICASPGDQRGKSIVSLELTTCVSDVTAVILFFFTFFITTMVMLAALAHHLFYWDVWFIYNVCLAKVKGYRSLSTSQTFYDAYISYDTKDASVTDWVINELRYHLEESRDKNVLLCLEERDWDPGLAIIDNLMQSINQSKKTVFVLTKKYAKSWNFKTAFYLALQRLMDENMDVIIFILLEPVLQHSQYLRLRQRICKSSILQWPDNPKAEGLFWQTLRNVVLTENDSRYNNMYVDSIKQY
In short: (§1)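 SEAP readout after 22 h agonist exposure at 37 °C; final agonist levels were 7.5 μM gardiquimod (TLR7), 15.9 μM R848 (TLR8) and 5 nM ODN2006 (TLR9). Inhibitors, spanning 0.05 nM to 50 μM final, were applied 30 min beforehand.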

human TLR9 = molecular target: T2, human TLR9 (Homo sapiens, UniProt Q9NR96); test: TLR9 inhibition reporter assay (HEK-Blue cells, SEAP reporter, ODN2006 stimulation); details: HEK-Blue cells overexpressing human TLR9, SEAP reporter, ODN2006 5 nM
T2 construct: host or cells: HEK-Blue cells
T2 sequence (Q9NR96 26-1032): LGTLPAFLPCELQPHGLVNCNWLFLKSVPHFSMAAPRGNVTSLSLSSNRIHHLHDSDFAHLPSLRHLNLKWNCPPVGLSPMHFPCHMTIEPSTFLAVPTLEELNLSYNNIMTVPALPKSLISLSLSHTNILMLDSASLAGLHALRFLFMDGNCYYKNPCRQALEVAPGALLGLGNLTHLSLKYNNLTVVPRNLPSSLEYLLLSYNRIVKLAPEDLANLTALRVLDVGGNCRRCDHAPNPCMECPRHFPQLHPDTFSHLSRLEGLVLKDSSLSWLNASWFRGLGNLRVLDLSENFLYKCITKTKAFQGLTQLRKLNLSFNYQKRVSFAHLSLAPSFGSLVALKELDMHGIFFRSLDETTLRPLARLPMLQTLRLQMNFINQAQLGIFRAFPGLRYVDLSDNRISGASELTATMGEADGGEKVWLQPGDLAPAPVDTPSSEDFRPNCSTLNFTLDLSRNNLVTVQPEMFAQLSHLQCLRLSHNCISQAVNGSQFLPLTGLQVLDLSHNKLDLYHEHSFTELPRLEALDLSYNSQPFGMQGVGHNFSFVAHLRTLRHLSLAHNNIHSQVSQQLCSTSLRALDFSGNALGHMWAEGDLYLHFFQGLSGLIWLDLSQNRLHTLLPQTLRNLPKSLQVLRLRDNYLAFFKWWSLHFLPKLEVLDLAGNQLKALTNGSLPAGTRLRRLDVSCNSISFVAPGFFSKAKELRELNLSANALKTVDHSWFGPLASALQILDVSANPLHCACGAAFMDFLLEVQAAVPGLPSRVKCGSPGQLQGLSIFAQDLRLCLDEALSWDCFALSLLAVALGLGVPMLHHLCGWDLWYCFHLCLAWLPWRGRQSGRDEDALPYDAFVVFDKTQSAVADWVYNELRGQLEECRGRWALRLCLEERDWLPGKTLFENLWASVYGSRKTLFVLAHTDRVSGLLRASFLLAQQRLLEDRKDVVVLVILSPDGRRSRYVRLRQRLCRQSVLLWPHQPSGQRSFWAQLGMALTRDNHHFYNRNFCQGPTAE
In short: as §1

human TLR7 = molecular target: T3, human TLR7 (Homo sapiens, UniProt Q9NYK1); test: TLR7 inhibition reporter assay (HEK-Blue cells, SEAP reporter, gardiquimod stimulation); details: HEK-Blue cells overexpressing human TLR7, SEAP reporter, gardiquimod 7.5 μM
T3 construct: host or cells: HEK-Blue cells
T3 sequence (Q9NYK1 27-1049): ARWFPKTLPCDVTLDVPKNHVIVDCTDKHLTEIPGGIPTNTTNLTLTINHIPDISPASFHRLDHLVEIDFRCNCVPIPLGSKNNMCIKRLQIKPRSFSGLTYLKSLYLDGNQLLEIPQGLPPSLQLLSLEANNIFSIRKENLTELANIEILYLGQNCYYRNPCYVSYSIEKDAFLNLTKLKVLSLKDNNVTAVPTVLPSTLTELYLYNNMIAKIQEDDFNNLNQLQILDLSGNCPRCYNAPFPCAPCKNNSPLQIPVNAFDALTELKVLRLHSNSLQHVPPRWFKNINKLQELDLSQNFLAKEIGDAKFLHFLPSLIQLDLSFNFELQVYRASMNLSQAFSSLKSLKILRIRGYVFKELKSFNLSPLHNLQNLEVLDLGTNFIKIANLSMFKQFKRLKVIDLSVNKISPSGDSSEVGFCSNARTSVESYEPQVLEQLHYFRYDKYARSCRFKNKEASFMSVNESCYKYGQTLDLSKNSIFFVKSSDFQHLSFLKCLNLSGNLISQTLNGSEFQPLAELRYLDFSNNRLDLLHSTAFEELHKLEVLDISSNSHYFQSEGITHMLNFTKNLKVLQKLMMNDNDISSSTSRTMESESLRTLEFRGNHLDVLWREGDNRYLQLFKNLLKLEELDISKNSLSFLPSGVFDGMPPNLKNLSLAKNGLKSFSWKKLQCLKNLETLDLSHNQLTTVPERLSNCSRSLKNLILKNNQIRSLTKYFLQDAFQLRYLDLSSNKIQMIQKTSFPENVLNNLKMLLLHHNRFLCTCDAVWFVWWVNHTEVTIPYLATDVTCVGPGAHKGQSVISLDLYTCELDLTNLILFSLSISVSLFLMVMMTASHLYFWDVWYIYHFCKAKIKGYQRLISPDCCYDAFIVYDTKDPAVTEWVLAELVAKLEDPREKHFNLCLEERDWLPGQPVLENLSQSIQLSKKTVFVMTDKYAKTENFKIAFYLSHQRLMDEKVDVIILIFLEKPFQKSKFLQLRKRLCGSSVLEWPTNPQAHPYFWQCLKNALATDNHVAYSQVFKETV
In short: as §1

| IC50 (human TLR8) [nM] | IC50 (human TLR9) [nM] | IC50 (human TLR7) [nM] | SMILES |
| --- | --- | --- | --- |
| 50 | 646 | 189 | Cc1cc(-c2[nH]c3ccc([C@H]4C[C@H]4C(=O)NC4CCC5CNCC54)cc3c2C(C)C)ccn1 (stereo partly drawn) [Example 457] |
| 21 | 2270 | 57 | Cc1cc(-c2[nH]c3ccc([C@@H]4C[C@H]4C(=O)NC4CCN(C(C)C)CC4)cc3c2C(C)C)ccn1 [Example 458] |
| 27 | 116 | 25 | Cc1cc(-c2[nH]c3ccc([C@@H]4C[C@H]4C(=O)N(C)C4CCNCC4)cc3c2C(C)C)ccn1 [Example 462] |
| 3.4 | 271 | 28 | Cc1cc(-c2[nH]c3ccc([C@@H]4C[C@H]4CN4CCCC4)cc3c2C(C)C)ccn1 [Example 464] |
| 3.3 | > 50000 | 3 | Cc1cc(-c2[nH]c3ccc(C4CCC(N5CCC(F)(F)CC5)CC4)cc3c2C(C)C)cn(C)c1=O (stereo not drawn) [Example 465] |
| 26 | > 50000 | 32 | Cc1cc(-c2[nH]c3ccc(C4CCC(N5CCC(F)(F)CC5)CC4)cc3c2C(C)C)cn(C)c1=O (stereo not drawn) [Example 466] |
| 33 | 47000 | 48 | Cc1cc(-c2[nH]c3ccc(C4CCC(N5CCCC(F)(F)C5)CC4)cc3c2C(C)C)cn(C)c1=O (stereo not drawn) [Example 467] |
| 219 | > 50000 | 280 | Cc1cc(-c2[nH]c3ccc(C4CCC(N5CCCC(F)(F)C5)CC4)cc3c2C(C)C)cn(C)c1=O (stereo not drawn) [Example 468] |
| 3130 | 9020 | 1110 | Cc1cc(-c2[nH]c3ccc(C4CCCCC4)cc3c2C(C)C)cc(C)n1 [Example 469] |
| 3130 | 18300 | 568 | Cc1cc(-c2[nH]c3ccc(C4CCCCC4)cc3c2C(C)C)cn(C)c1=O [Example 470] |
| 14 | 38300 | 43 | Cc1c(-c2[nH]c3ccc(C4CCC(NC(=O)CN(C)C)CC4)cc3c2C(C)C)cn(C)c(=O)c1C (stereo not drawn) [Example 471] |
| 4.6 | 23700 | 3 | Cc1c(-c2[nH]c3ccc(C4CCC(NC(=O)CN(C)C)CC4)cc3c2C(C)C)cn(C)c(=O)c1C (stereo not drawn) [Example 472] |
| 15 | 8970 | 34 | Cc1c(-c2[nH]c3ccc(C4CCC(NCC(=O)N(C)C)CC4)cc3c2C(C)C)cn(C)c(=O)c1C (stereo not drawn) [Example 473] |
| 19 | 28900 | 45 | Cc1c(-c2[nH]c3ccc(C4CCC(NC5COC5)CC4)cc3c2C(C)C)cn(C)c(=O)c1C (stereo not drawn) [Example 474] |
| 28 | 10600 | 26 | Cc1c(-c2[nH]c3ccc(C4CCC(N(C)C)CC4)cc3c2C(C)C)cn(C)c(=O)c1C (stereo not drawn) [Example 475] |
| 2.6 | 4770 | 3 | Cc1c(-c2[nH]c3ccc(C4CCC(N(C)C)CC4)cc3c2C(C)C)cn(C)c(=O)c1C (stereo not drawn) [Example 476] |
| 1.8 | 8210 | 2 | Cc1c(-c2[nH]c3ccc(C4CCC(NC5COC5)CC4)cc3c2C(C)C)cn(C)c(=O)c1C (stereo not drawn) [Example 477] |
| 7.6 | 10200 | 20 | Cc1c(-c2[nH]c3ccc(C4CCC(NC5COC5)CC4)cc3c2C(C)C)cn(C)c(=O)c1C (stereo not drawn) [Example 478] |
| 4.1 | 8610 | 5 | Cc1c(-c2[nH]c3ccc(C4CCC(NCC(=O)N(C)C)CC4)cc3c2C(C)C)cn(C)c(=O)c1C (stereo not drawn) [Example 479] |
| 6.3 | 6200 | 20 | Cc1c(-c2[nH]c3ccc(C4CCC(NCC(=O)N(C)C)CC4)cc3c2C(C)C)cn(C)c(=O)c1C (stereo not drawn) [Example 480] |
| 27 | 32800 | 109 | Cc1c(-c2[nH]c3ccc(C4CN(C5CCOCC5)C4)cc3c2C(C)C)cn(C)c(=O)c1C [Example 481] |
| 9.2 | 10300 | 34 | Cc1c(-c2[nH]c3ccc(C4CN(C(C)C)C4)cc3c2C(C)C)cn(C)c(=O)c1C [Example 482] |

| SMILES | IC50 (human TLR8) [nM] | IC50 (human TLR9) [nM] | IC50 (human TLR7) [nM] |
| --- | --- | --- | --- |
| Cc1cc(-c2[nH]c3ccc([C@@H]4C[C@H]4C(=O)N(C)C4CC5CCN4CC5)cc3c2C(C)C)ccn1 (stereo partly drawn) [Example 459] | 10 | 174 | 19 |
| Cc1cc(-c2[nH]c3ccc([C@@H]4C[C@H]4C(=O)NC4CC5CCN4CC5)cc3c2C(C)C)ccn1 (stereo partly drawn) [Example 460] | 31 | 179 | 51 |
| Cc1cc(-c2[nH]c3ccc([C@@H]4C[C@H]4C(=O)NC4CC5CCN4CC5)cc3c2C(C)C)ccn1 (stereo partly drawn) [Example 461] | 30 | 467 | 86 |
| Cc1cc(-c2[nH]c3ccc([C@@H]4C[C@H]4C(=O)N(C)C4CC5CCN4CC5)cc3c2C(C)C)ccn1 (stereo partly drawn) [Example 463] | 15 | 406 | 35 |
